Data: US4996225A, “Tri-phenyl alkane derivatives and their oestrogenic, anti-oestrogenic and progestanic uses” (Farmos Group Ltd., priority 1982, dated 1991)
Entries after “also recorded” stand apart in the source; their conditions may differ. Blank lines part the entries; values can stand above or below the compound they belong to.

Assays:
oestrogen receptors = target: T1, oestrogen receptors (Rattus norvegicus, UniProt P06211); assay: affinity for oestrogen receptors, competition with 3H-17-β-estradiol in rat uterus cytosol (dextran-charcoal method); assay type: binding; settings: read-out: Estrogen receptor affinity (concentration of compound where 50% competition (inhibition) with 3H-estradiol occurred)
T1 construct: rat uterus cytosol preparation; from tissue; host or cells: rat uterus cytosol
T1 sequence (P06211 1-600): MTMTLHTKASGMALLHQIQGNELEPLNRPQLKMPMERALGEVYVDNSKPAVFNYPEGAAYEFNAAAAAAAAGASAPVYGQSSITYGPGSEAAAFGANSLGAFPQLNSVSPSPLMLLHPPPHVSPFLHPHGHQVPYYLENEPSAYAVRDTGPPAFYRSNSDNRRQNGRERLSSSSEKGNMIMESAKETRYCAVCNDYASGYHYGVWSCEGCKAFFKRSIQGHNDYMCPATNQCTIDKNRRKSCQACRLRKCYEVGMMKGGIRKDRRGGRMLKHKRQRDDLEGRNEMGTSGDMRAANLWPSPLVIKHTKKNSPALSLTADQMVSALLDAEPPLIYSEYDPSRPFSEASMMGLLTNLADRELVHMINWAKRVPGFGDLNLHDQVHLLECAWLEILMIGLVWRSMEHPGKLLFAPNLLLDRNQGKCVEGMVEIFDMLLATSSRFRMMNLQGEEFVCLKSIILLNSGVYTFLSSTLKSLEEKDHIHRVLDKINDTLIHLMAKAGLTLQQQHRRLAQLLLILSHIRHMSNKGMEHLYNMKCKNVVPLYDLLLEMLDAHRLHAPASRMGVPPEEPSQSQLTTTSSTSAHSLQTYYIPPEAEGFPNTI
Protocol: The affinity of the new compounds for oestrogen receptors was determined by the ability to compete with ^3 H-labelled 17-β-estradiol in rat uterus cytosol preparation. After incubation, receptor-bound and receptor-unbound ligands were separated by a known dextrancharcoal method.

[1] = test system: MCF-7 cell line (human mammary adenocarcinoma); assay: anti-tumour effect in vitro, growth of MCF-7 cell line (bioluminescence assay, intracellular ATP); assay type: cell-based; settings: read-out: Antitumour effect against MCF-7 cell line (IC50 = concentration of compound where 50% inhibition of cell growth could be seen)
Protocol: The anti-tumour effect was studied in vitro as follows:
The amount of living cells after 4 h, 24 h and 48 h incubations were determined by bioluminescence assay (intracellular ATP determination).
inhibition of cell growth could be seen.

immature mouse uterus [2] = assay: oestrogenic effect, uterus weight of immature mice; assay type: in vivo; settings: for estrogenic effect: less than that of estradiol 0.05 mg/kg / increase in uterus weight: 5 mg/kg; for estrogenic effect (in words): immature mice, s.c., three days; for estrogenic effect of their own (in words): up to 5 mg/kg
Protocol: (§1) The oestrogen-antiestrogen (progesterone) effect of the new compounds in vivo was determined as follows: (1) The oestrogenic properties were determined by administering the new compounds, suspended in sesame oil, subcutaneously to 21 days old immature mice on three consecutive days. The mice were killed on the fourth day and the uterus was weighed. […] The weight correlates with the oestrogenic effect of the compound tested. […] In this case, the ability of the molecules to inhibit oestrogen-induced uterus weight increase was also investigated.

[3] = test system: estradiol induced weight increase in immature mouse uterus; assay: antiestrogenic effect, inhibition of oestrogen-induced uterus weight increase in immature mice; assay type: in vivo; settings: for anti-estrogenic effect (in words): immature mouse uterus; for effect with estradiol (in words) / reduction in the weights of mice uterus, with estradiol: with estradiol 0.05 mg/kg; for inhibition of estradiol-induced uterus weight increase: estradiol 5 μg/kg
Protocol: as §1

immature mouse uterus [4] = assay: progestanic effect, uterus weight of immature mice (alone or with medroxyprogesterone acetate); assay type: in vivo; design: reduction in the weight of a mouse uterus, given alone / reduction in the weight of uterus with medroxyprogesterone / reduction in the weights of mice uterus, given alone: concentration or dose not given beside the values; settings: for reduction in the weights of mice uterus, given alone: Table 2A; for effect with medroxyprogesterone (in words) / reduction in the weights of mice uterus with medroxyprogesterone, compared to control: with medroxyprogesterone 0.06 mg/kg
[5] = test system: DMBA-induced rat mammary adenocarcinomas; assay: antitumour effect in vivo against DMBA-induced rat mammary adenocarcinoma
Protocol: The anti-tumour effect was investigated in vivo against DMBA-induced rat mammary adenocarcinomas, transplantable mammary and ovarial adenocarcinoma and transplantable prostatic squamous cell carcinoma by the following methods:
Mammary adenocarcinomas were induced by DMBA in 35-40 days old female rats. […] Tumour size and numbers of tumours were evaluated twice a week. Tumour sizes in the control group, treated with solvent, were compared with the test groups.
The size refers to the width×height of the tumour. The growth rate is a difference between sizes compared with that of the first day of the treatment.

Compound: OCC[C@H](c1ccccc1)[C@@](O)(c1ccccc1)c1ccc(O)cc1 (relative stereo) [Compound 1, 1,2-diphenyl-1-(4-hydroxyphenyl)-butane-1,4-diol]
- IC50 (oestrogen receptors): 1 to 10 µM

Compound: Oc1ccc([C@@H](c2ccccc2)[C@@H](CCCl)c2ccccc2)cc1 (relative stereo) [Compound 14, 4-chloro-1,2-diphenyl-1-(4-hydroxyphenyl)-butane]
- IC50 [1]: 5 to 10 µM
- estrogenic effect: less than that of estradiol 0.05 mg/kg (immature mouse uterus [2]): about 50%
- effect given alone: estrogenic (in words) (immature mouse uterus [2]): estrogenic
- increase in the weights of mice uterus, given alone (immature mouse uterus [2]): 50%
- estrogenic effect (in words) (immature mouse uterus [2]): could be seen only at the higher concentrations investigated
- inhibition of estradiol induced effect in mouse uterus ([3]; 5 mg/kg): 20%
- anti-estrogenic effect (in words) [3]: possessed anti-estrogenic effects
- effect with estradiol (in words) [3]: anti-
- reduction in the weights of mice uterus, with estradiol [3]: 20%
- IC50 (oestrogen receptors): 0.1 to 1 µM

Compound: CN(C)CCOc1ccc([C@](O)(c2ccccc2)[C@H](CCO)c2ccccc2)cc1 (relative stereo) [Compound 17, 1,2-diphenyl-1-[4-[2-(N,N-dimethylamino)-ethoxy]phenyl]butane-1,4-diol]
- estrogenic effect of their own (in words) (immature mouse uterus [2]): no estrogenic effect of their own
- IC50 (oestrogen receptors): 10 to 100 µM

Compound: COc1ccc(C(=C(CCO)c2ccccc2)c2ccccc2)cc1 [Compound 3, 1,2-diphenyl-1-(4-methoxyphenyl)-1-buten-4-ol]
- IC50 (oestrogen receptors): 1 to 10 µM

Compound: CN(C)CCOc1ccc(/C(=C(/CCO)c2ccccc2)c2ccccc2)cc1 [Compound 4, 1,2-diphenyl-1-[4-[2-(N,N-dimethylamino)-ethoxy]-phenyl]-1-buten-4-ol]
- growth rate of tumours compared to controls ([5]; 10 mg/kg): one eighth
- IC50 [1]: 1 to 5 µM
- estrogenic effect of their own (in words) (immature mouse uterus [2]): no estrogenic effect of their own
- inhibition of estradiol induced effect in mouse uterus ([3]; 0.5 mg/kg): 12%
- effect given alone: antiestrogenic (in words) [3]: anti-
- anti-estrogenic effect (in words) [3]: possessed anti-estrogenic effects
- effect with estradiol (in words) [3]: anti-
- reduction in the weights of mice uterus, with estradiol [3]: 21%
- effect given alone: progestanic (in words) (immature mouse uterus [4]): progestanic
- reduction in the weight of a mouse uterus, given alone (immature mouse uterus [4]): 38%
- reduction in the weights of mice uterus, given alone (immature mouse uterus [4]): 31%
- interaction with medroxyprogesterone (in words) (immature mouse uterus [4]; with medroxyprogesterone): slight inhibition
- reduction in the weight of uterus with medroxyprogesterone (immature mouse uterus [4]; with medroxyprogesterone): 17%
- effect with medroxyprogesterone (in words) (immature mouse uterus [4]): weak
- reduction in the weights of mice uterus with medroxyprogesterone, compared to control (immature mouse uterus [4]): 17%
- IC50 (oestrogen receptors): 1 to 10 µM

Compound: OCCCC(=C(c1ccccc1)c1ccc(O)cc1)c1ccccc1 [Compound 6, 1,2-diphenyl-1-(4-hydroxyphenyl)-1-penten-5-ol]
- IC50 (oestrogen receptors): 0.1 to 10 µM

Compound: OCCC(c1ccc(O)cc1)C(O)(c1ccccc1)c1ccc(O)cc1 (stereo not shown) [Compound 8, 1-phenyl-1,2-bis(4-hydroxyphenyl)-butane-1,4-diol]
- IC50 (oestrogen receptors): 1 to 10 µM

Compound: CN(C)CCOc1ccc(/C(=C(\CCO)c2ccccc2)c2ccccc2)cc1 [Compound 12, 1,2-diphenyl-1-[4-[2-(N,N-dimethylamino)-ethoxy]phenyl]-1-buten-4-ol]
- antitumour effect against DMBA-induced mammary cancer (in words) ([5]; compared with compound 7): Antitumour effect less than that of compound 7
- IC50 [1]: 1 to 5 µM
- IC50 (oestrogen receptors): 10 to 100 µM

Compound: CN(C)CCOc1ccc(/C(=C(/CCF)c2ccccc2)c2ccccc2)cc1 [Compound 21, 4-fluoro-1,2-diphenyl-1-[4-[2-(N,N-dimethylamino)ethoxy]phenyl]-1-butene]
- growth rate of the tumours (in words) ([5]; rat, in vivo): only the growth rate of the tumours was reduced
- IC50 [1]: 5 to 10 µM
- increase in uterus weight (immature mouse uterus [2]): ≤ 55%
- inhibition of estradiol-induced uterus weight increase ([3]; 5 mg/kg): 68-100%
- IC50 (oestrogen receptors): 0.1 to 1 µM

Compound: CN(C)CCOc1ccc(/C(=C(/CCI)c2ccccc2)c2ccccc2)cc1 [Compound 22, 4-iodo-1,2-diphenyl-1-[4-[2-(N,N-dimethylamino)ethoxy]phenyl]-1-butene]
- amount of new tumours (in words) ([5]; rat, in vivo): the amount of new tumours decreased
- growth rate of the tumours (in words) ([5]; rat, in vivo): the growth rate of the tumours decreased
- IC50 [1]: 1 to 5 µM
- increase in uterus weight (immature mouse uterus [2]): ≤ 70%
- inhibition of estradiol-induced uterus weight increase ([3]; 5 mg/kg): less than 67%
- IC50 (oestrogen receptors): 0.1 to 1 µM

Compound: CNCCOc1ccc(/C(=C(/CCCl)c2ccccc2)c2ccccc2)cc1 [Compound 23, 4-chloro-1,2-diphenyl-1-[4-[2-(N-methylamino)ethoxy]phenyl]-1-butene]
- growth rate of the tumours (in words) ([5]; rat, in vivo): only the growth rate of the tumours was reduced
- IC50 [1]: 1 to 5 µM
- increase in uterus weight (immature mouse uterus [2]): ≤ 55%
- inhibition of estradiol-induced uterus weight increase ([3]; 5 mg/kg): 68-100%
- IC50 (oestrogen receptors): 1 to 10 µM

The next lines start with results.

- IC50 [1]: 1 to 5 µM
- IC50 (oestrogen receptors): 0.1 to 1 µM
Compound: Oc1ccc([C@@]2(c3ccccc3)OCCC[C@@H]2c2ccccc2)cc1 (relative stereo) [Compound 5, 2,3-diphenyl-2-(4-hydroxyphenyl)tetrahydropyran]
- estrogenic effect: less than that of estradiol 0.05 mg/kg (immature mouse uterus [2]): 41%
- estrogenic effect (in words) (immature mouse uterus [2]): could be seen only at the higher concentrations investigated
- estrogenic effect with increased doses (in words) (immature mouse uterus [2]; increased doses, effect overcame that of medroxyprogesterone): a weak estrogenic effect could be seen; also recorded: A slight increase in the weight of uterus
- anti-estrogenic effect (in words) [3]: no antiestrogenic effect
- effect with estradiol (in words) [3]: no synergism
- decrease of weight of mouse uterus (immature mouse uterus [4]; 0.05 mg/kg): 34%
- effect given alone: progestanic (in words) (immature mouse uterus [4]): progestanic
- reduction in the weights of mice uterus, given alone (immature mouse uterus [4]): 34%
- progestanic effect (in words) (immature mouse uterus [4]; immature mouse uterus): due to its progestanic effect
- interaction with medroxyprogesterone (in words) (immature mouse uterus [4]; with medroxyprogesterone): No inhibition of medroxyprogesterone
- effect with medroxyprogesterone (in words) (immature mouse uterus [4]): no inhibition
- reduction in the weights of mice uterus with medroxyprogesterone, compared to control (immature mouse uterus [4]): 34%

- IC50 [1]: 5 to 10 µM
- IC50 (oestrogen receptors): 10 to 100 µM
Compound: CN(C)CCOc1ccc([C@@]2(c3ccccc3)OCC[C@@H]2c2ccccc2)cc1 (relative stereo) [Compound 16, 2,3-diphenyl-2-[4-[2-(N,N-dimethylamino)-ethoxy]phenyl]-tetrahydrofuran]
- estrogenic effect of their own (in words) (immature mouse uterus [2]): no estrogenic effect of their own

- IC50 (oestrogen receptors): 0.1 to 1 µM
Compound: Oc1ccc(C2CCOC2(c2ccccc2)c2ccc(O)cc2)cc1 (stereo not shown) [Compound 9, 2-phenyl-2,3-bis(4-hydroxyphenyl)-tetrahydrofuran]
- effect given alone: estrogenic (in words) (immature mouse uterus [2]): estrogenic
- increase in the weights of mice uterus, given alone (immature mouse uterus [2]): 50%
- effect with estradiol (in words) [3]: not anti-
- reduction in the weights of mice uterus, with estradiol [3]: < 10%

- IC50 (oestrogen receptors): 0.1 to 1 µM
Compound: OCC/C(=C(/c1ccccc1)c1ccc(O)cc1)c1ccccc1 [Compound 10, 1,2-diphenyl-1-(4-hydroxypheny)-1-buten-4-ol]

- IC50 (oestrogen receptors): 1 to 10 µM
Compound: OCC/C(=C(\c1ccccc1)c1ccc(O)cc1)c1ccccc1 [Compound 11, 1,2-diphenyl-1-(4-hydroxyphenyl)-1-buten-4-ol]
- estrogenic effect of their own (in words) (immature mouse uterus [2]): no estrogenic effect of their own
- inhibition of estradiol induced effect in mouse uterus ([3]; 5 mg/kg): 31%
- effect given alone: antiestrogenic (in words) [3]: anti-
- anti-estrogenic effect (in words) [3]: possessed anti-estrogenic effects
- effect with estradiol (in words) [3]: anti-
- reduction in the weights of mice uterus, with estradiol [3]: 31%
- reduction in the weight of a mouse uterus, given alone (immature mouse uterus [4]): 56%
- reduction in the weights of mice uterus, given alone (immature mouse uterus [4]): 56%
- interaction with medroxyprogesterone (in words) (immature mouse uterus [4]; with medroxyprogesterone): synergistic effect with medroxyprogesterone
- effect with medroxyprogesterone (in words) (immature mouse uterus [4]): no inhibition
- reduction in the weights of mice uterus with medroxyprogesterone, compared to control (immature mouse uterus [4]): 40%

- IC50 [1]: 5 to 10 µM
- IC50 (oestrogen receptors): 1 to 10 µM
Compound: Oc1ccc(/C(=C(/CCCl)c2ccccc2)c2ccccc2)cc1 [Compound 15, 4-chloro-1,2-diphenyl-1-(4-hydroxyphenyl)-1-butene]
- effect given alone: estrogenic (in words) (immature mouse uterus [2]): estrogenic
- increase in the weights of mice uterus, given alone (immature mouse uterus [2]): 20%
- inhibition of estradiol induced effect in mouse uterus ([3]; 5 mg/kg): 25%
- anti-estrogenic effect (in words) [3]: possessed anti-estrogenic effects
- effect with estradiol (in words) [3]: anti-
- reduction in the weights of mice uterus, with estradiol [3]: 25%
